For two compounds, IC50 results are on record in BindingDB's records for doi:10.1021/jm401056w (Takeda Pharmaceutical, 2013).

The assay is described as follows: Inhibition of human KISS1R expressed in CHO cells assessed as inhibition of KISS1R-mediated cell growth after 3 days by cell counting kit-8 assay.

Molecules are shown by their SMILES.

Take `CNC(N)=NCCC[C@H](NC(=O)[C@H](CC(C)C)NC(=O)CNC(=O)[C@H](Cc1ccccc1)NC(=O)[C@H](CO)NC(=O)[C@H](CC(N)=O)NC(=O)[C@H](Cc1c[nH]c2ccccc12)NC(=O)[C@H](CC(N)=O)NC(=O)[C@H](N)Cc1ccc(O)cc1)C(=O)N[C@@H](Cc1ccccc1)C(N)=O`: the IC50 (commonly the concentration needed to halve the response being measured) was determined as 0.087 µM.
Under `CC(C)C[C@H](NC(=O)CNC(=O)[C@H](Cc1ccccc1)NC(=O)[C@H](CO)NC(=O)[C@H](CC(N)=O)NC(=O)[C@H](Cc1c[nH]c2ccccc12)NC(=O)[C@H](CC(N)=O)NC(=O)[C@@H](N)Cc1ccc(O)cc1)C(=O)N[C@@H](CCCN=C(N)N)C(=O)N[C@@H](Cc1ccccc1)C(N)=O` [(2S)-2-[(2S)-2-[(2S)-2-[(2S)-2-amino-3-(4-hydroxyphenyl)propanamido]butanediamido]-3-(1H-indol-3-yl)propanamido]-N-[(1S)-1-{[(1S)-1-[({[(1S)-1-{[(1S)-4-carbamimidamido-1-{[(1S)-1-carbamoyl-2-phenylethyl]carbamoyl}butyl]carbamoyl}-3-methylbutyl]carbamoyl}methyl)carbamoyl]-2-phenylethyl]carbamoyl}-2-hydroxyethyl]butanediamide] stands 8.51 µM.
